Experiment [1] is described as follows: Binding affinity to human RFC expressed in Chinese hamster PC43-10 cells assessed as antiproliferative activity measured as reduction in cell growth after 96 hrs by Cell-Titer Blue assay.
A short description of experiment [2]: Binding affinity to human PCFT expressed in Chinese hamster R2/PCFT4 cells assessed as antiproliferative activity measured as reduction in cell growth after 96 hrs by Cell-Titer Blue assay.
Experiment [3] can be described thus: Binding affinity to human FRalpha expressed in Chinese hamster RT16 cells assessed as antiproliferative activity measured as reduction in cell growth after 96 hrs by Cell-Titer Blue assay.

This passage reports IC50 results from BindingDB's records for doi:10.1016/j.bmc.2019.115125 (Duquesne University, 2019).

pIC50: −log10 of the molar value.

Turning to `CN(Cc1cc2c(=O)[nH]c(N)nc2[nH]1)C(=O)c1ccc(C(=O)N[C@@H](CCC(=O)O)C(=O)O)cc1`, the pIC50 in experiment [1] is less than 6.00; in experiment [2] it was 7.31.

As to `CN(Cc1cc2c(=O)[nH]c(N)nc2[nH]1)C(=O)c1csc(C(=O)N[C@@H](CCC(=O)O)C(=O)O)c1`, the pIC50 in experiment [1], in experiment [3] and in experiment [2] was less than 6.00 throughout.

As for `CN(Cc1cc2c(=O)[nH]c(N)nc2[nH]1)C(=O)c1ccc(C(=O)N[C@@H](CCC(=O)O)C(=O)O)s1`, the pIC50 in experiment [1] is less than 6.00; in experiment [3] it was 8.11; in experiment [2], less than 6.00.

Take `CN(Cc1cc2c(=O)[nH]c(N)nc2[nH]1)C(=O)c1cccc(C(=O)N[C@@H](CCC(=O)O)C(=O)O)c1`: the pIC50 is less than 6.00 in experiment [1], 8.74 in experiment [3] and 6.13 in experiment [2].

As to `CN(Cc1cc2c(=O)[nH]c(N)nc2[nH]1)C(=O)c1cc(C(=O)N[C@@H](CCC(=O)O)C(=O)O)cs1`, the pIC50 was less than 6.00 in experiment [1], 6.06 in experiment [3] and less than 6.00 in experiment [2].

Consider `CN(Cc1cc2c(=O)[nH]c(N)nc2[nH]1)S(=O)(=O)c1ccc(C(=O)N[C@@H](CCC(=O)O)C(=O)O)cc1`, for which the pIC50 in experiment [1], in experiment [3] and in experiment [2] was less than 6.00 each time.

A word on the pIC50: it is the negative decadic logarithm of the IC50, by convention in mol/L.
